Source: patent US20140369934A1, “dsRNA/DNA Hybrid Genome Replication Intermediate Of Metakaryotic Stem Cells” (MASSACHUSETTS INSTITUTE OF TECHNOLOGY, priority 2011, published 2014)

Tested on: dsRNA/DNA-specific antibodies
Assay: Blocking test of dsRNA/DNA antibody immunofluorescence staining with poly(A)-poly(dT)
Type: binding
Conditions: 10 micrograms/milliliter Poly(A)-Poly(dT) mixed with antibody (1/20 final), incubated 10-15 minutes at room temperature
Description: The specificity of staining by antibodies was checked for by the blocking test with poly(A)-poly(dT), which was performed as follows:
Equal volumes of Poly(A)-Poly(dT) (20 ug/ml) and antibody (1/10) were mixed to give final concentrations of 10 ug/ml A.dT and 1/20 of serum (antibody). For controls, PBS was used in place of Poly(A)-Poly(dT). Samples were incubated for 10-15 minutes at room temperature.
Samples were then tested at final concentrations of 10, 2.0, 0.5 and 0.08 micrograms/ml, in each case incubating equal volumes of polynucleotide and antibody that are twice the final concentration, as above.

Substance: Poly(A)-Poly(dT)
- staining with dsRNA/DNA-specific antibodies after addition of blocker: completely blocked
